Results on twelve compounds are retold here after patent US20090011025A1, “Biotin-Amino Acid Conjugate Useful as a Hydrogelator and Hydrogel Prepared Therefrom” (POSTECH FOUNDATION, priority 2005, published 2009).

The structures appear in SMILES notation.

A word on the melting point: it is the temperature, or range, at which the solid turns liquid.

A short description of series [1]: Gelation capability of gelators, stable-to-inversion of container method (minimum gelation concentration, gel stability and clarity). The format is physicochemical. Set-up: key to minimum gelation concentration (MGC): —: no gel formed. The note with it: for stability of gel (time the gel lasted): aqueous media; for stability of gel (time the gel persisted): in each medium. The method, then: In order to examine the gelation capability of gelators 1 to 11, the degrees of gelation in various aqueous media were measured as follows, in accordance with the “stable-to-inversion of container” method (Menger, F. M. and Caran, K. L., J. Am. Chem. Soc. 2000, 122, 11679).
Specifically, 0.002 to 0.04 g of each gelator and 1 ml of an aqueous medium (distilled water, 0.9% aqueous NaCl solution, 0.01 M hydrochloric buffer (pH 2.0), 0.05 M phthalate buffer (pH 4.0), 0.08 M MOPSO buffer (pH 7.0) or 0.025 M sodium tetraborate buffer (pH 9.0)) were put into a sealed glass tube (5 mm i.d.), and the mixture was heated at 100° C. until a solution was obtained. The tube was then maintained at room temperature for 5 to 10 min.
Then, the minimum gelation concentration (MGC, wt %), i.e., the lowest concentration of a gelator at which it forms a hydrogel, of each gelator compound was determined, and the result is shown in Table 1.

A short description of series [2]: Textures of the hydrogels/xerogels by scanning electron microscopy (SEM). The format is physicochemical. Particulars: gel at MGC in distilled water, freeze-dried. The method, then:
The textures of the hydrogels formed by the gelators prepared in the Examples were examined as follows, employing a scanning electron microscopy (SEM).
First, gelators 1 to 11 were each dissolved in 1 ml of distilled water in an amount ranging from 0.003 to 0.02 g to reach the corresponding MGC listed in Table 1, and the mixture was heated at 100° C. to form a hydrogel. The hydrogel was frozen at −78° C., and freeze-dried for 6 hours to obtain a xerogel.

For series [3] the following is noted: cited from earlier work.
For a further series, the target named is streptavidin (Streptomyces avidinii, UniProt P22629). The experiment in a line: Influence of ligand-receptor interaction (streptavidin) on the gel state of a hydrogel, SEM. The note with it: 0.002 equivalent of streptavidin, after 1 hour. The method, then:
The influence of ligand-receptor interaction on the gel state of hydrogels was examined as follows.
0.002 g of gelator 9 was added to 1 ml of distilled water, and the mixture was heated at 100° C. to form a hydrogel.

Setting [4] is: pH 2 (0.01 M hydrochloric buffer).
Where [5] appears, read: pH 9 (0.025 M sodium tetraborate buffer).

Chain of streptavidin (P22629 25-183, species assumed): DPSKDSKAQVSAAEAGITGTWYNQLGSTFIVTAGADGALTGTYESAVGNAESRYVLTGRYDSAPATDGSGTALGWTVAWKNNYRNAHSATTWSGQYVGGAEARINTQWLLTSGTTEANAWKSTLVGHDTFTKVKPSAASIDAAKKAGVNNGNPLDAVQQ

The compound `CCC[C@H](NC(=O)CCCC[C@@H]1SC[C@@H]2NC(=O)N[C@@H]21)C(=O)O` [Gelator 8, N-biotinyl-L-norvaline] came in with a melting point of 255 °C. Further, in series [1], the clarity of gel result is recorded as “opaque” and the “stability of gel (time the gel lasted)” value is given as “about 1 week”. For the same compound, the “minimum gelation concentration (MGC)” value in series [1] (H2O/0.9% NaCl (aq.)) turned out to be 1.2 wt %. Also, in series [1] (setting [4]), the “minimum gelation concentration (MGC)” value turned out to be 0.9 wt %. Further, the “minimum gelation concentration (MGC)” value in series [1] (pH 4 (0.05 M phthalate buffer)) is listed as 1.2 wt %. For the same compound, in series [1] (pH 7 (0.08 M MOPSO buffer)), the “minimum gelation concentration (MGC)” value is reported as 2.5 wt %. For the same compound, in series [1] (setting [5]), the “minimum gelation concentration (MGC)” value was determined as 3.8 wt %. Besides, the “structure type of hydrogel (xerogel SEM image)” value in series [2] was “lamellar structures”.

As to `O=C(O)CCCC[C@@H]1SC[C@@H]2NC(=O)N[C@@H]21` [biotin], in series [3] (organic solvents), the “solubility in organic solvents” value is recorded as “insolubility”. Moreover, the solubility in water in series [3] (water) was 1.0-0.8 mmol/L.

`CCCCCC(NC(=O)CCCC[C@@H]1SC[C@@H]2NC(=O)N[C@@H]21)C(=O)O` (stereo partly drawn) [Gelator 10, N-biotinyl-D,L-2-aminoenantic acid]: the “minimum gelation concentration (MGC)” value is reported as 0.8 wt % in series [1] (H2O/0.9% NaCl (aq.)); 0.6 wt % in series [1] (setting [4]); 1.0 wt % in series [1] (pH 4 (0.05 M phthalate buffer)); 2.0 wt % in series [1] (pH 7 (0.08 M MOPSO buffer)); 4.0 wt % in series [1] (setting [5]).

`CC[C@H](C)[C@H](NC(=O)CCCC[C@@H]1SC[C@@H]2NC(=O)N[C@@H]21)C(=O)O` [Gelator 4, N-biotinyl-L-isoleucine]: the melting point fell in the range of 230 to 233 °C. For the same compound, in series [1], the clarity of gel result was “opaque” and the “stability of gel (time the gel lasted)” value is “about 1 week”. In addition, the “minimum gelation concentration (MGC)” value in series [1] (H2O/0.9% NaCl (aq.)) is 1.2 wt %. In addition, in series [1] (setting [4]), the “minimum gelation concentration (MGC)” value amounted to 1.0 wt %. Moreover, the “minimum gelation concentration (MGC)” value in series [1] (pH 4 (0.05 M phthalate buffer)) turned out to be 1.2 wt %. The “minimum gelation concentration (MGC)” value in series [1] (pH 7 (0.08 M MOPSO buffer)) is 2.7 wt %. Moreover, the “minimum gelation concentration (MGC)” value in series [1] (setting [5]) is reported as 3.9 wt %. In addition, in series [2], the “structure type of hydrogel (xerogel SEM image)” value was “lamellar structures”.

`O=C(CCCC[C@@H]1SC[C@@H]2NC(=O)N[C@@H]21)N[C@@H](Cc1ccccc1)C(=O)O` [Gelator 1, N-biotinyl-L-phenylalanine] gave a melting point of 205 °C. Further, in series [1], the clarity of gel result is on record as “translucent to opaque” and the “stability of gel (time the gel persisted)” value is “about 6 months”. In addition, the “minimum gelation concentration (MGC)” value in series [1] (H2O/0.9% NaCl (aq.)) is listed as 2.0 wt %. The “minimum gelation concentration (MGC)” value in series [1] (setting [4]) is 1.5 wt %. For the same compound, the “minimum gelation concentration (MGC)” value in series [1] (pH 4 (0.05 M phthalate buffer)) was 2.0 wt %. Also, in series [1] (pH 7 (0.08 M MOPSO buffer)), the “minimum gelation concentration (MGC)” value is 3.0 wt %. Besides, in series [1] (setting [5]), the “minimum gelation concentration (MGC)” value is 4.0 wt %. For the same compound, the “structure type of hydrogel (xerogel SEM image)” value in series [2] was “fibrous structures”.

On to `O=C(CCCC[C@@H]1SC[C@@H]2NC(=O)N[C@@H]21)N[C@@H](Cc1c[nH]c2ccccc12)C(=O)O` [Gelator 7, N-biotinyl-L-tryptophan], for which the melting point was 160 to 161 °C. In addition, in series [1] (H2O/0.9% NaCl (aq.)), the “minimum gelation concentration (MGC)” value is “—”. Besides, the “minimum gelation concentration (MGC)” value in series [1] (setting [4]) is listed as “—”. Also, the “minimum gelation concentration (MGC)” value in series [1] (pH 4 (0.05 M phthalate buffer)) is given as “—”. Moreover, the “minimum gelation concentration (MGC)” value in series [1] (pH 7 (0.08 M MOPSO buffer)) is “—”. Also, the “minimum gelation concentration (MGC)” value in series [1] (setting [5]) was “—”.

As for `CSCC[C@H](NC(=O)CCCC[C@@H]1SC[C@@H]2NC(=O)N[C@@H]21)C(=O)O` [Gelator 3, N-biotinyl-L-methionine], the melting point amounted to 207 °C. Besides, the “minimum gelation concentration (MGC)” value in series [1] (H2O/0.9% NaCl (aq.)) is 1.8 wt %. For the same compound, in series [1] (setting [4]), the “minimum gelation concentration (MGC)” value is recorded as “—”. For the same compound, in series [1] (pH 4 (0.05 M phthalate buffer)), the “minimum gelation concentration (MGC)” value is given as “—”. The “minimum gelation concentration (MGC)” value in series [1] (pH 7 (0.08 M MOPSO buffer)) is “—”. Further, the “minimum gelation concentration (MGC)” value in series [1] (setting [5]) is given as “—”.

`CCCC[C@H](NC(=O)CCCC[C@@H]1SC[C@@H]2NC(=O)N[C@@H]21)C(=O)O` [Gelator 9, N-biotinyl-L-norleucine]: the melting point stood at 172 °C. For the same compound, the “gel state after addition of streptavidin” value at streptavidin was “disrupted”. Further, the “minimum gelation concentration (MGC)” value in series [1] (H2O/0.9% NaCl (aq.)) was 0.3 wt %. Moreover, the “molecules of water immobilized by one molecule of gelator” value in series [1] (at MGC in distilled water) is on record as 6,700 molecules of water. The “minimum gelation concentration (MGC)” value in series [1] (setting [4]) worked out at 0.2 wt %. Besides, in series [1] (pH 4 (0.05 M phthalate buffer)), the “minimum gelation concentration (MGC)” value was 0.5 wt %. In addition, the “minimum gelation concentration (MGC)” value in series [1] (pH 7 (0.08 M MOPSO buffer)) is 1.2 wt %. For the same compound, in series [1] (setting [5]), the “minimum gelation concentration (MGC)” value is given as 1.5 wt %.

`O=C(CCCC[C@@H]1SC[C@@H]2NC(=O)N[C@@H]21)N[C@@H](Cc1ccc(O)cc1)C(=O)O` [Gelator 6, N-biotinyl-L-tyrosine] registered a melting point of 259 to 260 °C. Also, the “minimum gelation concentration (MGC)” value in series [1] (H2O/0.9% NaCl (aq.)) is given as “—”. Moreover, the “minimum gelation concentration (MGC)” value in series [1] (setting [4]) is “—”. In addition, in series [1] (pH 4 (0.05 M phthalate buffer)), the “minimum gelation concentration (MGC)” value is recorded as “—”. For the same compound, the “minimum gelation concentration (MGC)” value in series [1] (pH 7 (0.08 M MOPSO buffer)) is on record as “—”. Also, the “minimum gelation concentration (MGC)” value in series [1] (setting [5]) is recorded as “—”.

Consider `CC(C)C[C@H](NC(=O)CCCC[C@@H]1SC[C@@H]2NC(=O)N[C@@H]21)C(=O)O` [Gelator 2, N-biotinyl-L-leucine], for which the melting point fell in the range of 209 to 210 °C. Further, in series [1], the clarity of gel result is “translucent to opaque” and the “stability of gel (time the gel persisted)” value is given as “about 6 months”. For the same compound, in series [1] (H2O/0.9% NaCl (aq.)), the “minimum gelation concentration (MGC)” value came to 1.6 wt %. In addition, the “minimum gelation concentration (MGC)” value in series [1] (setting [4]) is 1.4 wt %. Besides, the “minimum gelation concentration (MGC)” value in series [1] (pH 4 (0.05 M phthalate buffer)) is given as 1.8 wt %. Also, the “minimum gelation concentration (MGC)” value in series [1] (pH 7 (0.08 M MOPSO buffer)) amounted to 2.8 wt %. For the same compound, in series [1] (setting [5]), the “minimum gelation concentration (MGC)” value turned out to be 3.6 wt %. In addition, in series [2], the “structure type of hydrogel (xerogel SEM image)” value is listed as “fibrous structures”.

In turn, `CC(C)[C@H](NC(=O)CCCC[C@@H]1SC[C@@H]2NC(=O)N[C@@H]21)C(=O)O` [Gelator 5, N-biotinyl-L-valine] yielded a melting point of 215 to 216 °C. Moreover, in series [1], the clarity of gel entry was “opaque” and the “stability of gel (time the gel lasted)” value is “about 1 week”. The “minimum gelation concentration (MGC)” value in series [1] (H2O/0.9% NaCl (aq.)) turned out to be 1.4 wt %. Moreover, the “minimum gelation concentration (MGC)” value in series [1] (setting [4]) is 1.0 wt %. Besides, the “minimum gelation concentration (MGC)” value in series [1] (pH 4 (0.05 M phthalate buffer)) is 1.4 wt %. Further, the “minimum gelation concentration (MGC)” value in series [1] (pH 7 (0.08 M MOPSO buffer)) is on record as 2.7 wt %. In series [1] (setting [5]), the “minimum gelation concentration (MGC)” value was found to be 4.0 wt %. In addition, the “structure type of hydrogel (xerogel SEM image)” value in series [2] is recorded as “lamellar structures”.

Compound `CCCCCCC(NC(=O)CCCC[C@@H]1SC[C@@H]2NC(=O)N[C@@H]21)C(=O)O` (mixture of isomers) [Gelator 11, N-biotinyl-D,L-2-aminocaprylic acid] gave a melting point of 198.5 °C. The “minimum gelation concentration (MGC)” value in series [1] (H2O/0.9% NaCl (aq.)) turned out to be 0.6 wt %. In series [1] (setting [4]), the “minimum gelation concentration (MGC)” value is given as 0.8 wt %. Moreover, in series [1] (pH 4 (0.05 M phthalate buffer)), the “minimum gelation concentration (MGC)” value was 0.8 wt %. Besides, the “minimum gelation concentration (MGC)” value in series [1] (pH 7 (0.08 M MOPSO buffer)) came out at 1.7 wt %. Also, in series [1] (setting [5]), the “minimum gelation concentration (MGC)” value is 3.5 wt %.
